Target: truncated Polθ protein (Polθ-Hel containing the helicase domain (67-894)) (Homo sapiens (Human), UniProt O75417)
Test: Polθ ATPase assay (Biological Assay 1, ADP-Glo luminescence)
Assay type: biochemical
Description: The Polθ ATPase assay was used to evaluate inhibitors of Polθ ATPase activity, in vitro. Experiments were performed using a truncated Polθ protein (Polθ-Hel containing the helicase domain (67-894), ATP and a DNA single strand Oligo (5′-CTGTCCTGCATGATG-3′) in the Polθ assay buffer (20 mM Tris-HCl (pH 8.8), MgCl2 5 mM, tween20 0.01%, NP40 0.01%, BSA 0.01%, DTT 1 mM). 2 μL of assay buffer containing Polθ-Hel protein (0.5 nM) and DNA substrate (500 nM) was transferred into assay ready plates, containing 0.04 μL of compounds diluted in DMSO. After a 30 minutes incubation at 23° C. in the dark, the reaction was triggered by adding 2 μL of ATP (60 μM), in assay buffer. After 60 minutes at 23° C., 4 μl of ADP-Glo™ Reagent (Glo 1) was added followed by 40 minutes of incubation, then 8 μl of ADP-Glo™ kinase Detection Reagent (Glo 2) followed by 60 minutes of incubation at 23° C. Luminescence was then measured using Tecan F200 infinite plate reader. Raw data were analysed using GeneData to generate IC50 values.
The Polθ ATPase assay described in Biological Assay 1 above was used to evaluate inhibitors of Polθ ATPase activity for the compounds described in the Experimental Part B above, in vitro.

[1] = Table A, Polθ-Hel 0.5 nM, DNA substrate 500 nM, ATP 60 μM

Sequence of truncated Polθ protein (Polθ-Hel containing the helicase domain (67-894)) (O75417 67-894): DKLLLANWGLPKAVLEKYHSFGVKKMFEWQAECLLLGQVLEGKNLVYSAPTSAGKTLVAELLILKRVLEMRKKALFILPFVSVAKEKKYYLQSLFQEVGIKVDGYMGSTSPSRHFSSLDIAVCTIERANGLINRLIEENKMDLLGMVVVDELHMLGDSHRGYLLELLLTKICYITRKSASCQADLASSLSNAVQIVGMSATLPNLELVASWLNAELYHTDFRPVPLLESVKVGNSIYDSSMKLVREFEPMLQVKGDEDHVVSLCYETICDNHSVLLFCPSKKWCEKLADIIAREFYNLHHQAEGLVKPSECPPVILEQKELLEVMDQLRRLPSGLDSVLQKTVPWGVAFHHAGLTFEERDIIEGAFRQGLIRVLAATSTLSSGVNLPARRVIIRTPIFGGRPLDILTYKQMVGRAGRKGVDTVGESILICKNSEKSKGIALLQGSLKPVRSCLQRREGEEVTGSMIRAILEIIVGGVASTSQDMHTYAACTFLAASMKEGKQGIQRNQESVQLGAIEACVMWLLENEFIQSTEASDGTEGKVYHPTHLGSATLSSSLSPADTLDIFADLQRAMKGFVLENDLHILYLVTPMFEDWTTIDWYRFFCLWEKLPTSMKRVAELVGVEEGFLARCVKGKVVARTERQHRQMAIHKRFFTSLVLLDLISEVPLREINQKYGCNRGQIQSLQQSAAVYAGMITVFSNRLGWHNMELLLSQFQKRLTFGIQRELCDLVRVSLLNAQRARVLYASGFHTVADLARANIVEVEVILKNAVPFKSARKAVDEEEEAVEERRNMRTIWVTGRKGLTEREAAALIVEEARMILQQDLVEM

With COc1cnc(Cl)cc1-c1cc(C)ncc1C(=O)Nc1nc2ccc(I)cc2s1 [Example 4, 2′-chloro-N-(6-iodo-1,3-benzothiazol-2-yl)-5′-methoxy-6-methyl-[4,4′-bipyridine]-3-carboxamide] as the compound, how does the IC50 [1] read?
The IC50 was under 0.1 µM.

Which IC50 [1] does the source give for COc1ccccc1-c1cnccc1C(=O)Nc1nc2ccccc2s1 [Example 15, N-(1,3-benzothiazol-2-yl)-3-(2-methoxyphenyl) pyridine-4-carboxamide] here?
The IC50 was over 1 µM.

For COc1cnc(Cl)cc1-c1cc(C)ncc1C(=O)Nc1nc2cnc(N3CCC(O)CC3)cc2s1 [Example 68, 2′-chloro-N-[6-(4-hydroxypiperidin-1-yl)-[1,3]thiazolo[4,5-c]pyridin-2-yl]-5′-methoxy-6-methyl-[4,4′-bipyridine]-3-carboxamide], which IC50 [1] is on record?
Its IC50 is under 0.1 µM.

With COc1cnc(Cl)cc1-c1cc(C)ncc1C(=O)Nc1nc2cnc(N3CC(OC)C3)cc2s1 [Example 129, 2′-chloro-5′-methoxy-N-[6-(3-methoxyazetidin-1-yl)-[1,3]thiazolo[4,5-c]pyridin-2-yl]-6-methyl-[4,4′-bipyridine]-3-carboxamide] as the compound, how does the IC50 (Table B (Part B compounds), same assay as Biological Assay 1) read?
Its IC50 is under 0.1 µM.
